Reference: the supplement of paper PMC10307832

Tests used:
Assay in all cases: relative viability (nuclei count vs DMSO), 5 days (fraction); higher = more cells survive
[1] = compound: C1=CC=C(C(=C1)C2=CC=C(C=C2)C3=CSC4=C3C(=C(C(=O)N4)C#N)O)O + CC1(C)CCC(c2ccc(Cl)cc2)=C(CN2CCN(c3ccc(C(=O)NS(=O)(=O)c4ccc(N[C@H](CCN5CCOCC5)CSc5ccccc5)c(S(=O)(=O)C(F)(F)F)c4)cc3)CC2)C1 [Navitoclax] (partner 0.5 µM)
Summary of the method: (§1)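 Relative viability is defined as nuclei in treated wells over nuclei in vehicle wells. Duplicate plates were run and medians reported. Lung cancer cell lines in 1536-well plates were dosed by pin tool one day after seeding, with one drug or with a fixed anchor-drug dose plus five library-drug doses (not always all listed) in √10 steps, and nuclei were counted after 5 days.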

[2] = compound: C1=CC=C(C(=C1)C2=CC=C(C=C2)C3=CSC4=C3C(=C(C(=O)N4)C#N)O)O + CS(=O)(=O)N1CCN(Cc2cc3nc(-c4cccc5[nH]ncc45)nc(N4CCOCC4)c3s2)CC1 [Pictilisib] (partner 1 µM)
Summary of the method: as §1

Ricolinostat + Lapatinib = compound: O=C(CCCCCCNC(=O)c1cnc(N(c2ccccc2)c2ccccc2)nc1)NO [Ricolinostat] + CS(=O)(=O)CCNCc1ccc(-c2ccc3ncnc(Nc4ccc(OCc5cccc(F)c5)c(Cl)c4)c3c2)o1 [Lapatinib] (partner 2 µM)
Summary of the method: as §1

[3] = compound: O=C(CCCCCCNC(=O)c1cnc(N(c2ccccc2)c2ccccc2)nc1)NO [Ricolinostat] + C[C@@H](Oc1cc(-c2cnn(C3CCNCC3)c2)cnc1N)c1c(Cl)ccc(F)c1Cl [Crizotinib] (partner 1 µM)
Summary of the method: as §1

NCI-H1792 gave a relative viability ([1]; first compound 0.253 µM) of 0.441, a relative viability ([1]; first compound 0.8 µM) of 0.354 and a relative viability ([1]; first compound 2.53 µM) of 0.704. The relative viability ([1]; first compound 8 µM) was 0.276, the relative viability ([2]; first compound 0.253 µM) was 0.275 and the relative viability ([2]; first compound 0.8 µM) was 0.266. The relative viability ([2]; first compound 2.53 µM) was 0.19, the relative viability ([2]; first compound 8 µM) was 0.18 and the relative viability (Ricolinostat + Lapatinib; first compound 0.08 µM) was 0.719. It also gave a relative viability (Ricolinostat + Lapatinib; first compound 0.253 µM) of 0.918, a relative viability (Ricolinostat + Lapatinib; first compound 0.8 µM) of 0.863 and a relative viability (Ricolinostat + Lapatinib; first compound 2.53 µM) of 1.01. It also gave a relative viability ([3]; first compound 0.08 µM) of 0.849, a relative viability ([3]; first compound 0.253 µM) of 0.988 and a relative viability ([3]; first compound 0.8 µM) of 0.913. The relative viability ([3]; first compound 2.53 µM) was 1.
